Experimental findings from patent publication US20240218019A1, “METHODS AND COMPOSITIONS COMPRISING MHC CLASS I PEPTIDES” (BOARD OF REGENTS, THE UNIVERSITY OF TEXAS SYSTEM, priority 2021, published 2024) are described below.

Entries after “also recorded” stand apart in the source; their conditions may differ.

For this assay, the system named is healthy donor PBMCs. Briefly: IFNγ ELISpot assay with peptide-stimulated healthy donor PBMCs. In kind it is cell-based, human. As to conditions: for ELISPOT positive: only neoAgs marked Tested with ELISPOT; for ELISpot result (positive response) for peptides tested with ELISpot / ELISpot IFNγ reactivity (immunogenicity) of individual peptides: healthy donor PBMCs; for ELISpot IFNγ reactivity (immunogenicity) of individual peptides: compared to unexposed control cells. Here is the method:
FIG. 10A-D. In vitro validation of predicted neoAgs immunogenicity using ELISpot IFNy assay. A) Schematic of peptide pool, stimulation, and cell culture workflow for ELISpot assays. PBMCs were exposed with the individual peptides from the immunogenic pools in the presence of IL-7 for 3 d, followed by expansion of neoAg-specific T cells in the presence of IL-2. On day 13, expanded cells (10^5 cells per well) were plated onto 96-well ELISpot plate coated with an IFNγ antibody and re-stimulated with the respective peptide for 24 h. IFNy secreting cells were analyzed as spot-forming units (SFUs), and the inventors chose ≥15 SFU produced by peptide stimulated cells over DMSO control cells as an indicator of the peptide immunogenicity. B) Quantification of IFNγ-secreting cells (SFU) obtained from ELISpot assay of 12 neoAg-stimulated PBMCs. ConcA and DMSO served as positive and negative controls. […] C) Selection of 110 predicted MHC-I neoAgs from 3 different categories and percentage of immunogenicity in vitro validation. […] “Most Immunogenic” refers to neoAgs selected from the top 100 prediction list of Most Immunogenic MHC-I neoAgs. “Most recurrent” refers to neoAgs selected from the top 100 prediction list of Most Recurrent MHC-I neoAgs. “Others” refers neoAgs that were predicted to have low immunogenicity and no recurrency. A total of 44 MHC-II neoAgs from 2 different categories were tested. […] “Most Immunogenic” refers to neoAgs selected from the top 100 prediction list of Most Immunogenic MHC-II neoAgs. “Most recurrent” refers to neoAgs selected from the top 100 prediction list of Most Recurrent MHC-II neoAgs. D) pMHC-pentamer staining. Expanded Pan-T cells from the healthy human donor were isolated and stained with WDTC1 neoAg peptide/A*02:01 Pentameric complexes and PerCP-conjugated CD8 antibody followed by flow cytometry analysis. Pan T-cells from healthy human donor PBMC (HLA-A*02:01) were isolated using negative magnetic selection. Isolated Pan T cells were stimulated and expanded with Opto-antigen presenting beads conjugated with WDTC1 neoAg-peptide. Viable Pan-T cells were gated based on FSC and SSC scatter and SYTOX Blue dead cells staining after doublet-exclusion. Flow cytometric plots representing CD8 positive (x-axis) and PE-biotin-pMHC-pentamer positive (y-axis) cells; unstained, unstimulated, and WDTC1 Opto-antigen presenting beads stimulated cells (left to right). The percentage of live CD8+ cells and CD8/WDTC1 neoAg-loaded MHC pentamer positive cells are shown.
FIG. 19A-B. In vitro validation of the pooled predicted neoAgs immunogenicity using ELISpot IFNγ assay. A) Schematic of peptide pool, stimulation, and cell culture workflow for ELISpot assays. All 154 peptides were grouped into 15 peptide pools to stimulate PBMCs from 3 healthy human donors as shown in the illustrations. IFNy secreting cells were analyzed as spot-forming units (SFUs), indicative of immunogenicity. B) Quantification of IFNγ-secreting cells (SFU) obtained from ELISpot assay. Pools 2, 3, 5, 6, 9, and 12 produced at least 15 or higher SFU/10^5 cells from two different PBMCs. […] ConcA and DMSO served as positive and negative controls.
Healthy donor PBMCs were stimulated with 15 peptide pools (Supplementary Table 13) to expand the neoAg-specific CD8^+ T-cells followed by quantitative ELISpot assays (FIG. 19A) to measure immunogenicity. […] To ascertain the immunogenicity of individual peptides within each immunogenic pool. a deconvolution protocol (see Methods) was implemented (FIG. 10A). […] Three percent of MHC-I neoAgs not predicted to be highly immunogenic or recurrent (Others). 5% of the top 100 most immunogenic MHC-II predicted neoags, and 6% of the top 100 most recurrent MHC-II predicted neoags elicited an immunogenic response as assessed by ELISpot assays. Additionally. 18% of all of these elispot-reactive neoags were also predicted from the validation set (FIG. 9C). […]

Setting [1] is: IFNγ ELISpot, only peptides marked Tested.
Where [2] appears, read: IFNγ ELISpot, peptides marked Tested.
Setting [3] is: IFNγ ELISpot, peptide-stimulated healthy donor PBMCs, peptides grouped in 15 pools.
[4] abbreviates: IFNγ ELISpot, peptide-stimulated healthy donor PBMCs.
The mark [5] stands for this setting: IFNγ secretion in healthy donor PBMCs vs unexposed control cells.

Consider 112 (FLALNQLPQV) [compound 112], for which the “ELISPOT positive” value is “No”.
As to 218 (RWMVLRNSWRAVARM) [compound 218], the Elispot reactive entry under setting [1] was “No”.
As for 219 (IDNIKRNHNLALGRQ) [compound 219], the Elispot reactive result under setting [1] is recorded as “No”.
The same measure, in the same setting: to 220 (PKMQVTITLTSPIIR) [compound 220] belongs “No”.
The same measure, in the same setting: the entry for 222 (KTGLQLLRNHIEELK) [compound 222] is “No”.
223 (QKKLMLLRLNLRKMC) [compound 223]: for the setting “IFNγ ELISpot”, the “ELISpot result (positive response) for peptides tested with ELISpot” value (“ELISpot result (positive response)” below) is reported as “No”. Further, the Elispot reactive result under setting [1] was “No”.
Take 224 (LINIHHRKNPLLPMR) [compound 224]: the Elispot reactive result under setting [1] is listed as “No”.
On the same count and under the same terms, the entry for 227 (EDIEFHFSLGWTMLV) [compound 227] is “No”.
For the substance 229 (PALLLAEATHKASAL) [compound 229], the Elispot reactive entry reads like this: under setting [1], “No”; under setting [2], “No”.
On to 230 (SLDNVLRTMLRRFAR) [compound 230], for which the Elispot reactive result under setting [1] is given as “No”.
Same read-out and setting: to 231 (YLRFIKSLAERTMSV) [compound 231] belongs “No”.
Take 233 (RHVIKVLLGRKVNWH) [compound 233]: the Elispot reactive result runs as follows: under setting [1], “No”; under setting [2], “No”.
Take 234 (QLARFFPITPPVWHI) [compound 234]: the Elispot reactive entry reads like this: under setting [1], “No”; under setting [2], “No”.
236 (FEEIIKNDGALLKKK) [compound 236]: the Elispot reactive entry under setting [1] is recorded as “No”.
Still for that read-out and setting: to 238 (TKFITYRSKKLIQES) [compound 238] belongs “No”.
As for 239 (LEVMLLNMGYRITGL) [compound 239], the Elispot reactive entry is “No” under setting [1] and “No” under setting [2].
As to 240 (SINVLCVRASLIEKL) [compound 240], for the setting “IFNγ ELISpot”, the “ELISpot result (positive response)” value was “No”. For the same substance, the Elispot reactive result under setting [1] is “No”.
250 (TVEMRRWWTLVMEWK) [compound 250]: the Elispot reactive entry under setting [2] is “No”.
For the substance 290 (ANRYFSPNFKVKLYF) [compound 290], the “ELISpot result (positive response)” value (IFNγ ELISpot) is “No”.
In the case of 311 (KSLVRLSSCVPVALM) [compound 311], the Elispot reactive entry under setting [2] is “No”. For the same substance, the “ELISpot result (positive yes/no)” value (peptides marked Tested with ELISpot) is recorded as “No”.
318 (LRGGVIQSTRRRRRA) [compound 318]: the Elispot reactive entry under setting [2] is recorded as “No”.
As for 319 (PCASLLSTLSQPPPQ) [compound 319], the Elispot reactive entry under setting [2] was “No”.
The same measure, in the same setting: the entry for 320 (EDMQEVVVHKKRGLF) [compound 320] is “No”; for 321 (RFPLLMMWRTPMTTR) [compound 321] it is “No”; for 322 (PVLFKADQSESSLSS) [compound 322] it is “No”.
Same read-out and setting: to 324 (FGILNVLEFSSDRKK) [compound 324] belongs “No”.
On the same count and under the same terms, the entry for 325 (ILVALSWMGGLHSFY) [compound 325] is “No”.
In the case of 328 (LLHWRIGGGTPLSIS) [compound 328], the Elispot reactive result under setting [2] is listed as “No”.
Same read-out and setting: to 329 (EIQLTMNDSKHKLES) [compound 329] belongs “No”; to 332 (GVRILKLCSKVSFRV) [compound 332], “No”; to 334 (ALGLRILPPPLTSPS) [compound 334], “No”.
As to 335 (KKSVLKAIEQADLLQ) [compound 335], the Elispot reactive result under setting [2] is “No”.
For the substance 336 (KEALFLQEVFQAERL) [compound 336], the Elispot reactive entry under setting [2] is listed as “No”.
In the case of 354 (PVTPLRVQSVLLLGV) [compound 354], where the note is “IFNγ ELISpot”, the “ELISpot result (positive response)” value is reported as “No”.
Turning to 507 (VVHKKRGL) [compound 507], the Elispot reactive result (IFNγ ELISpot, only peptides marked Elispot tested = Yes) was “No”.
For AGIGWGASY, the Elispot reactive result under setting [3] is “yes”.
As for AGIGWGASY [compound 160], under setting [4], the “ELISPOT result (positive Yes/No) for peptides marked Tested” value was “Yes”. Further, the Elispot reactive result under setting [5] was “Yes”.
Turning to AMAENILAA [compound 150], the “ELISPOT result (positive Yes/No) for peptides marked Tested” value under setting [4] was “No”.
Consider APREGAAATPL [compound 18], for which the Elispot reactive result under setting [1] was “No”.
As for APSLTPMHSL [compound 209], the Elispot reactive result (IFNγ ELISpot, peptide tested) was “No”.
Consider ASLAHSDNF [compound 106], for which the “ELISPOT positive” value is recorded as “No”. Moreover, the “ELISPOT result (positive Yes/No) for peptides marked Tested” value under setting [4] is given as “No”.
Regarding ATLVTPPTRY [compound 166], the “ELISPOT result (positive Yes/No) for peptides marked Tested” value under setting [4] is “No”.
On the same count and under the same terms, to CRREYRVTM [compound 135] belongs “No”.
Regarding ELLNPVTMNK [compound 207], for the setting “IFNγ ELISpot, peptide tested”, the Elispot reactive entry is “No”.
“FLADSGIDPV [WDTC1, WDTC1 neoAg peptide, HLA-A*02:01 restricted]”: the “ELISpot IFNγ reactivity (immunogenicity) of individual peptides” value is “most reactive (immunogenic); also recorded: immunogenic”.
Turning to FLAPCNFYL [compound 16], the Elispot reactive result (IFNγ ELISpot, peptide tested) is on record as “No”.
For the substance FLATSGIDPV [compound 44], under setting [4], the “ELISPOT result for peptides marked Tested with ELISPOT (Yes/No)” value is “Yes”. The Elispot reactive result is recorded as “Yes” under setting [2] and “Yes” under setting [5].
FLIDDNFKV: under setting [3], the Elispot reactive result is given as “yes”.
FLIDDNFKV [SEQ ID NO 10]: the “ELISpot IFNγ reactivity (immunogenicity) of individual peptides” value (listed as TTLL10) is listed as “most reactive (immunogenic); also recorded: immunogenic”.
Take FLIDDNFKV [compound 10]: the Elispot reactive result is “Yes” (IFNγ ELISpot, peptide tested) and “Yes” under setting [5].
On to FLMDGFDEL [compound 11], for which the Elispot reactive result (IFNγ ELISpot, peptide tested) is on record as “No”.
In the case of FLQEVFQA [compound 5], the “ELISPOT result (positive Yes/No) for peptides marked Tested” value under setting [4] is given as “No”.
Consider FLWNSLLAV [compound 12], for which the Elispot reactive entry (IFNγ ELISpot, peptide tested) is “No”.
Consider FMNSTVFHV [compound 3], for which the “ELISPOT result for peptides marked Tested with ELISPOT (Yes/No)” value under setting [4] is “No”.
FQVHFLKSGGLPLVL: the Elispot reactive result under setting [3] is reported as “yes”.
FQVHFLKSGGLPLVL [compound 221]: the Elispot reactive entry under setting [1] is “Yes” and the Elispot reactive result under setting [5] is on record as “Yes”.
As for GLLHAVQEKL [compound 165], the “ELISPOT result (positive Yes/No) for peptides marked Tested” value under setting [4] is on record as “No”.
For the substance GMVPLIIPV [compound 116], the Elispot reactive result under setting [2] is on record as “No”.
Consider HNVQGFHPY [compound 178], for which, under setting [4], the “ELISPOT result (positive Yes/No) for peptides marked Tested” value was “No”.
In the case of HPARHLCRL [compound 208], for the setting “IFNγ ELISpot, peptide tested”, the Elispot reactive entry was “No”.
With HPPPPCLLLL [compound 217], the Elispot reactive entry (IFNγ ELISpot, peptide tested) is “No”.
Take HSWRFCTHIR [compound 154]: the “ELISPOT result (positive Yes/No) for peptides marked Tested” value under setting [4] is reported as “No”.
Still for that read-out and setting: the entry for HTCKVCVSF [compound 176] is “No”.
The same measure, in the same setting: the entry for IAFSQLIGM [compound 167] is “No”.
IAQPSTSSL [compound 28]: the Elispot reactive result by setting is: under setting [1], “No”; under setting [2], “No”.
Regarding ILFFFSSK [compound 175], the “ELISPOT result (positive Yes/No) for peptides marked Tested” value under setting [4] is listed as “No”.
On to IQKSWTATTY, for which, under setting [3], the Elispot reactive result is listed as “yes”.
Take IQKSWTATTY [compound 39]: the Elispot reactive result is listed as “Yes” under setting [1] and “Yes” under setting [5].
Take KADQSESSL [compound 123]: the Elispot reactive entry under setting [2] is “No”.
